Experimental data as given in paper PMC9589254, “Disrupting Cu trafficking as a potential therapy for cancer” (Frontiers in Molecular Biosciences, 2022).
Peptide text beside a SMILES is read from it.

How the values were obtained:
[1] = test system: HEK293 human kidney cells; assay: Cell toxicity (MTT assay), HEK293; assay type: cell-based; settings: copper ions alone, absence of peptides, read-out: LC50 (the source's name)
Procedure: (§1) HEK293 and MCF7 cells were cultured in Dulbecco’s modified Eagle’s medium (DMEM) high glucose medium, with fetal bovine serum (10%), L-glutamine (1%), and PSNS antibiotic (1%). The HepG2 cell line was cultured in Eagle’s minimum essential medium (EMEM), with fetal bovine serum (10%), L-glutamine (1%) and PSNS antibiotic (1%). The THLE-3 cell line was cultured in BGEM medium according to manufacturer’s instructions. All cell line types were cultured at 37°C with 5% CO2. The culture media was changed every 2 days. At 80% confluence, the cells were harvested using 0.25% trypsin and sub-cultured into 75 cm^2 flasks, 24-well plates, or 96-well plates, according to the experiment. The cells were then treated with a range of peptide concentrations suspended in medium without serum for 24 h. After the 24 h treatment, the various toxicity end points were evaluated in the control and peptide-exposed cells.
(§2) Peptides were introduced at various concentrations (three triplicates per concentration) ranging from 0 to 1 mM and incubated with the different cell lines (HEK293/MCF7/HepG2/THLE-3) for 24 h at 37°C. […] Lysates were transferred to 96-well plates and absorption values were collected using a Synergy plate reader at 570 nm wavelength. […] The absorption of the control (without peptide) was determined at 100%; all peptide concentrations were compared to the control sample. […]

HepG2 liver cancer cells = assay: Cell toxicity (MTT assay), HepG2; assay type: cell-based; settings: copper ions alone, absence of peptides, read-out: LC50 (the source's name)
Procedure: as §1, §2

MCF7 breast cancer cells = assay: Cell toxicity (MTT assay), MCF7; assay type: cell-based; settings: copper ions alone, absence of peptides, read-out: LC50 (the source's name)
Procedure: as §1, §2

ATP7B MBD3-4 = molecular target: T1, ATP7B MBD3-4 (Homo sapiens, UniProt P35670); assay: Microscale thermophoresis (MST) binding to MBD3-4; settings: for Kd: in the presence of Cu(I) (40 µM), protein 50 nM
T1 construct: […]; made in house; host or cells: E. coli Origami 2
T1 sequence (P35670 234-439): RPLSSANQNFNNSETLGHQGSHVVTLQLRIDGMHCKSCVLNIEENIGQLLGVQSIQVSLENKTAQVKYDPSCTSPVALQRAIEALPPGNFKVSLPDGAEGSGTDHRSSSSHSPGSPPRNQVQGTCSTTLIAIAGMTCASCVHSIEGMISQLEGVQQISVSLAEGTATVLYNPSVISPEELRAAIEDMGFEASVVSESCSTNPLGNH
Procedure: To better understand the EPR and CD experiments, MST binding experiments were performed. MST is a physical phenomenon whereby biomolecules migrate along a temperature gradient according to their size, hydrodynamic radius, charge, and hydration shell. The target biomolecule is fluorescently labeled and monitored over the course of the experiment. An infra-red laser is used to create a temperature gradient for a given time. Since binding interactions can alter the properties listed above, a binding curve can be created with a ligand titration series. Fixed amounts of labelled MBD3-4 or Atox1 were incubated with increasing concentrations of SMD or KER peptides, in the presence or absence of Cu(I) (Figure 3). […] The measured KD values of the SMD peptide were in the tens of µM range for both Atox1 (39 ± 3 μM) and MBD3-4 (45 ± 4 μM), whereas KER peptide preferentially interacted with Atox1 (20 ± 2 μM). The KD for the interaction with MBD3-4 was slightly higher (36 ± 3 μM).
The labelling was performed with reactive dyes using N-hydroxysuccinimide (NHS)–ester chemistry. The protein concentration was adjusted to 20 μM using HEPES buffer. Briefly, the solid fluorescent dye was dissolved in DMSO at a concentration of about 1.3 mM and mixed thoroughly. Before mixing the protein and dye, the concentration of the dye was adjusted to twice that of the protein using HEPES buffer. Then, the protein and fluorescent dye solutions were mixed at a 1:1 ratio and incubated for 30 min at room temperature in the dark. […] Purity was monitored by measuring the ratio of protein to dye (spectroscopically, for example, by measuring absorption at 280 nm for protein and 650 nm for the dye; molar absorbance: 250,000 M^−1 cm^−1) after the clean-up procedure.
(§3) MBD3-4 and Atox1 were labeled on lysine residues with red fluorescent NT-647-NHS using the NanoTemper labeling kit. […] Normalized fluorescence was detected at a ratio of [Fnorm = Fhot/Finitial]. Fluorescence was measured before IR-laser heating (Finitial) and after a specific IR-laser heating (Fhot) time. […]

Atox1 = molecular target: T2, Atox1 (Homo sapiens, UniProt O00244); assay: Microscale thermophoresis (MST) binding to Atox1; settings: neither in the presence nor in the absence of Cu(I)
T2 construct: made in house; host or cells: E. coli Origami 2 (as for ATP7B MBD3-4)
T2 sequence (O00244 1-68): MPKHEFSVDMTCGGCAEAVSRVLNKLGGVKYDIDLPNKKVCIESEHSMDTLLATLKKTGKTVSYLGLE
Procedure: To better understand the EPR and CD experiments, MST binding experiments were performed. MST is a physical phenomenon whereby biomolecules migrate along a temperature gradient according to their size, hydrodynamic radius, charge, and hydration shell. The target biomolecule is fluorescently labeled and monitored over the course of the experiment. An infra-red laser is used to create a temperature gradient for a given time. Since binding interactions can alter the properties listed above, a binding curve can be created with a ligand titration series. Fixed amounts of labelled MBD3-4 or Atox1 were incubated with increasing concentrations of SMD or KER peptides, in the presence or absence of Cu(I) (Figure 3). […]
The labelling was performed with reactive dyes using N-hydroxysuccinimide (NHS)–ester chemistry. […] Purity was monitored by measuring the ratio of protein to dye (spectroscopically, for example, by measuring absorption at 280 nm for protein and 650 nm for the dye; molar absorbance: 250,000 M^−1 cm^−1) after the clean-up procedure.
as §3

[2] = molecular target: ATP7B MBD3-4, fluorescently labelled (NT-647-NHS); assay: MST; with Cu(I) 40 uM; labelled protein 50 nM, peptide titrated; 25 mM Na2HPO4 pH 8, 150 mM NaCl, 0.05% Tween 20; 25 C; Monolith NT.115
[3] = molecular target: T3, Atox1, fluorescently labelled (NT-647-NHS) (UniProt O00244 1-68, red fluorescent NT-647-NHS on lysine residues); assay: as above; settings: both partners purified
T3 construct: Atox1 copper metallochaperone; also called metallochaperone Atox1; source: E. coli Origami 2, purified as for ATP7B MBD3-4 (chitin beads, intein self-cleaved with DTT)
T3 sequence (looked up): T2 sequence (O00244 1-68)

[4] = molecular target: T3, Atox1, fluorescently labelled …; assay: cell-based or functional assay
[5] = molecular target: ATP7B MBD3-4, fluorescently labelled (NT-647-NHS)

Chain of ATP7B MBD3-4, fluorescently labelled (NT-647-NHS) (P35670 whole entry): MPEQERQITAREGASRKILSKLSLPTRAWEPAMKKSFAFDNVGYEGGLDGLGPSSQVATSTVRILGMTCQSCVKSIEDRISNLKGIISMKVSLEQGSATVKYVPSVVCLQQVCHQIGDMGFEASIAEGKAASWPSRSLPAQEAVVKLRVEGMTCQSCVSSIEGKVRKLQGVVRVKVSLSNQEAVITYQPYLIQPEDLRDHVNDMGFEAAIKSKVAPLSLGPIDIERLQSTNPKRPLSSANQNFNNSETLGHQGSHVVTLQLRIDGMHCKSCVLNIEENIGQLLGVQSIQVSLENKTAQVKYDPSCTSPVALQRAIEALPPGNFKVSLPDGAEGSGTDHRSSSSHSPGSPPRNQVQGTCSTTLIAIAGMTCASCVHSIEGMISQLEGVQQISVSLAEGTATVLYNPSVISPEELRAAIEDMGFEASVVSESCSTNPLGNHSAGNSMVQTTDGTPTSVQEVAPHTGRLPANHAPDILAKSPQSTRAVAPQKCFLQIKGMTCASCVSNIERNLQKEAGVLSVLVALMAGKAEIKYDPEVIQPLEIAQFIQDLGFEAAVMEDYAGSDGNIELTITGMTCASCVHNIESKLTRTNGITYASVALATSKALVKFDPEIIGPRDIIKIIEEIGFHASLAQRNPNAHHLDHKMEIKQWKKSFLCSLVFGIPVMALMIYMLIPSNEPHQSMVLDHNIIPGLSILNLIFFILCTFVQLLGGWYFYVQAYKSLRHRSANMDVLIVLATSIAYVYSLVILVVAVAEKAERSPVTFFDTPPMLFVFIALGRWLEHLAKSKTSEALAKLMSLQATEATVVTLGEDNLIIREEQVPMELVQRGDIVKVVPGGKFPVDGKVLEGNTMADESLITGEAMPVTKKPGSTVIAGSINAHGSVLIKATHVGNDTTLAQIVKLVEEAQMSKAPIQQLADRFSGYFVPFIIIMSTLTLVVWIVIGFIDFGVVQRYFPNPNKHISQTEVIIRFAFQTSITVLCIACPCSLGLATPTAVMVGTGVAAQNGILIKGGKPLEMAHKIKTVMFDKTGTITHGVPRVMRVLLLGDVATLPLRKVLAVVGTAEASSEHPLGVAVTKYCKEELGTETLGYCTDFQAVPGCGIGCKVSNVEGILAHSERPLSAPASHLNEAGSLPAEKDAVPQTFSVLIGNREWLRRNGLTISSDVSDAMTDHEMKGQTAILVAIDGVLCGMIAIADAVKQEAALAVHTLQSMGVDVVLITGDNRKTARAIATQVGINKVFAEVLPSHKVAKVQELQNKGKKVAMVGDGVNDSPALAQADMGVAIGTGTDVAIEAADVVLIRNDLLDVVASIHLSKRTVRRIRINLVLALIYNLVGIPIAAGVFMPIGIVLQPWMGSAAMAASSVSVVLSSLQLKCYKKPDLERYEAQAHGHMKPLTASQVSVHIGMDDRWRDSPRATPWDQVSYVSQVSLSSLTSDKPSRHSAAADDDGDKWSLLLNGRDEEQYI

## [Cu+2] [Cu(II)]
[1]
  CC50: 196 µM
HepG2 liver cancer cells
  CC50: 205 µM
MCF7 breast cancer cells
  CC50: 180 µM

## C[C@@H](O)[C@H](NC(=O)[C@H](CCCNC(=N)N)NC(=O)[C@H](CCC(=O)O)NC(=O)[C@@H](N)CCCCN)C(=O)N[C@@H](CO)C(=O)N[C@@H](CCCNC(=N)N)C(N)=O [KER, KERTSR] (H-KERTSR-NH2)
ATP7B MBD3-4
  Kd: 36 ± 3 µM

## CC[C@H](C)[C@H](NC(=O)[C@H](CO)NC(=O)[C@H](CCSC)NC(=O)[C@H](CC(=O)O)NC(=O)[C@H](CCSC)NC(=O)[C@@H](N)CO)C(=O)N[C@@H](CCC(=O)O)C(N)=O [SMD, SMDMSIE] (H-SMDMSIE-NH2)
ATP7B MBD3-4
  Kd: 45 ± 4 µM

## GAGAAA [Ala]
ATP7B MBD3-4; neither in the presence nor in the absence of Cu(I)
  Binding interaction with MBD3-4 (MST): No binding interaction was observed
Atox1
  Binding interaction with Atox1 (MST): No binding interaction was observed

## [Cu+] [Cu(I)]
[1]
  CC50: 150 µM
HepG2 liver cancer cells
  CC50: 170 µM
MCF7 breast cancer cells
  CC50: 165 µM

B1: KER peptide (peptide)
peptide: KERTSR
notes: Made on rink-amide resin, which would give a C-terminal amide; also called KERTSR; source: synthetic peptide (Fmoc, rink-amide resin, reverse phase HPLC; 99.4% purity)
[2]
  Kd: 36 µM
[3]
  Kd: 20 ± 2 µM
[4]
  intracellular 64Cu content of MCF7 cells 4 h after 64Cu(II) injection, with peptide against without: 3 fold
[5]
  intracellular 64Cu content of MCF7 cells 4 h after 64Cu(II) injection, with peptide against without: 3 fold

B2: SMD peptide (peptide)
peptide: SMDMSIE
notes: Made on rink-amide resin, which would give a C-terminal amide; also called SMDMSIE; source: synthetic peptide (Fmoc, rink-amide resin, reverse phase HPLC; 95.1% purity)
[2]
  Kd: 45 µM
[3]
  Kd: 39 ± 3 µM
[4]
  intracellular 64Cu content of MCF7 cells 4 h after 64Cu(II) injection, with peptide against without: 5 fold
[5]
  intracellular 64Cu content of MCF7 cells 4 h after 64Cu(II) injection, with peptide against without: 5 fold
